Measured values: patent publication US4146536A, “Nocardicin E and F, and process for production thereof” (Fujisawa Pharmaceutical Co., Ltd., priority 1975, dated 1979)
≈ marks a conversion by molar mass, not a printed value.

How the values were obtained:
[1] = system: Bacillus subtilis ATCC6633; assay: Minimum Inhibitory Concentration (M.I.C.), serial agar dilution; type: cell-based; settings: Mueller Hinton agar, inoculum 10^6 cells/ml, 37° C., 20 hours
Method: (§1) Minimum Inhibitory Concentration (M.I.C.)
(§2) M.I.C. test was conducted by a usual serial agar dilution method, using Mueller Hinton agar (Inoculum: 10^6 cells/ml) which was incubated at 37° C. for 20 hours. M.I.C. value is expressed as the minimum concentration of the Nocardicin E or F (mcg/ml) which inhibits growth of the microorganism.

[2] = system: Escherichia coli NIHJ JC-2; assay: as above; type: cell-based; settings: NIHJJC2, Mueller Hinton agar, inoculum 10^6 cells/ml, 37° C., 20 hours
Method: as §1, §2

[3] = system: Pseudomonas aeruginosa NCTC10490; assay: as above; type: cell-based; settings: Mueller Hinton agar, inoculum 10^6 cells/ml, 37° C., 20 hours
Method: as §1, §2

[4] = system: Staphylococcus aureus 209P; assay: as above; type: cell-based; settings: Mueller Hinton agar, inoculum 10^6 cells/ml, 37° C., 20 hours
Method: as §1, §2

Solubility = type: physicochemical
[5] = aqueous alkaline solution (Nocardicin E: e.g. aqueous ammonia, aqueous sodium hydroxide solution)

SMILES | MIC [1] | MIC [2] | MIC [3] | MIC [4] | Solubility (Solubility; C2 H5 OH) | Solubility (Solubility; CH3 COCH3) | Solubility (Solubility; CH3 COOC2 H5) | Solubility (Solubility; CH3 OH) | Solubility (Solubility; CHCl3) | Solubility (Solubility; [5]) | Solubility (Solubility; dimethylsulfoxide) | Solubility (Solubility; pyridine)
O=C(NC1CN(C(C(=O)O)c2ccc(O)cc2)C1=O)/C(=N/O)c1ccc(O)cc1 (stereo not drawn) [Nocardicin F] | > 400 µg/mL | > 400 µg/mL | 100 µg/mL (≈ 250 µM) | > 400 µg/mL | Sparing soluble | Insoluble | Insoluble | Sparing soluble | Insoluble | Highly soluble | Highly soluble | Highly soluble
O=C(NC1CN(C(C(=O)O)c2ccc(O)cc2)C1=O)/C(=N\O)c1ccc(O)cc1 (stereo not drawn) [Nocardicin E] | > 400 µg/mL | > 400 µg/mL | 12.5 µg/mL (≈ 31.3 µM) | > 400 µg/mL | Sparingly soluble | Insoluble | Insoluble | Sparingly soluble | Insoluble | Highly soluble | Highly soluble | Highly soluble
